The numbers were not newly measured in patent publication US6753298B2, “Agents for combating Neospora spec” (Bayer AG, priority 1997, dated 2004), which cites them from elsewhere.

Each structure is given as a SMILES string.

For the series, the system named is Neospora. To be noted: experimentally infected mice; administered by drinking water.

Regarding `Nc1ccc(S(=O)(=O)Nc2ncccn2)cc1` [sulphadiazine], the in-vivo efficacy result is “effective only when the treatment was prophylactic”.
